Each structure is given as a SMILES string.

One assay is described as follows: Inhibition of Influenza A virus A/WSN/33(H1N1) cap-dependent endonuclease using 3'-BHQ2 labeled 30-mer RNA as substrate after 60 mins by fluorescence assay.
Details: not given
Also on record: species or system Influenza A virus (A/WSN/1933(H1N1)).
The compound `O=C(O)c1cn(Cc2ccccc2)cc(O)c1=O` returned an IC50 of 2100 nM.

Turning to `O=C(O)c1cn(CC2(c3ccccc3)CCCC2)cc(O)c1=O`, the IC50 came out at 60.7 nM. Against the preceding compound, the IC50 is about 35-fold lower.

`O=C(O)c1cn(Cc2ccc(F)cc2)cc(O)c1=O` came in with an IC50 of 3230 nM.

Regarding `O=C(O)c1cn(CCCc2ccccc2)cc(O)c1=O`, half-maximal inhibition (IC50) was put at 1420 nM.

In the case of `O=C(O)c1cn(CCc2cccc(Cl)c2)cc(O)c1=O`, the IC50 was determined as 430 nM.

Take `O=C(O)c1cn(CCCCc2ccccc2)cc(O)c1=O`: the IC50 was 2810 nM.

In turn, `O=C(O)c1cn(CCc2ccc(O)cc2)cc(O)c1=O` gave an IC50 of 2490 nM.

Consider `Cn1cc(C2(Cn3cc(O)c(=O)c(C(=O)O)c3)CCCC2)c2ncccc21`, for which the IC50 was 46.3 nM. Against the preceding compound, the IC50 is about 54-fold lower.

In the case of `Cn1cc(C2(Cn3cc(O)c(=O)c(C(=O)O)c3)CCCC2)c2ccccc21`, the IC50 was determined as 16.1 nM.

In turn, `O=C(O)c1cn(CC2(c3ccc4cccnc4c3)CCCC2)cc(O)c1=O` had an IC50 of 16.4 nM.

With `O=C(O)c1cn(CCc2ccccc2Cl)cc(O)c1=O`, the midpoint of inhibition, the IC50, lay at 242 nM.

Turning to `O=C(O)c1cn(CC2(c3cccc(Cl)c3)CCCC2)cc(O)c1=O`, inhibition was half-maximal at 9.2 nM (IC50).

`O=C(O)c1cn(CC2(c3ccnc(-n4cccn4)c3)CCCC2)cc(O)c1=O` showed an IC50 of 17.9 nM.

Compound `O=C(O)c1cn(Cc2ccc(F)cc2)ccc1=O` returned an IC50 of more than 500000 nM.

For `O=C(O)c1cn(CC2(c3ccc(Cl)cc3)CCCC2)cc(O)c1=O`, the IC50 worked out at 15.6 nM.

For the compound `O=C(O)c1cn(CC2(n3ccc4cccnc43)CCCC2)cc(O)c1=O`, inhibition was half-maximal at 5.12 nM (IC50).

`O=C(O)c1cn(CC2(c3ccccc3)CCC2)cc(O)c1=O` registered a half-inhibitory concentration (IC50) of 105 nM.

In turn, `O=C(O)c1cn(CC2(c3ccc4c(c3)OCO4)CCCC2)cc(O)c1=O` gave an IC50 of 16.3 nM.

Turning to `O=C(O)c1cn(CC2(c3ccccc3)CCCCC2)cc(O)c1=O`, the IC50 was found to be 61.8 nM.

The compound `O=C(O)c1cn(CC2(c3ccccc3Cl)CCCC2)cc(O)c1=O` gave an IC50 of 36.1 nM. Against the preceding compound, the IC50 is about 1.7-fold lower.

On to `O=C(O)c1cn(CCc2ccccc2)cc(O)c1=O`, for which half-maximal inhibition (IC50) was put at 714 nM. This IC50 is about 20-fold higher than that of the compound before.

In turn, `O=C(O)c1cn(CC2(c3ccc4ccccc4c3)CCCC2)cc(O)c1=O` gave a concentration for half-maximal inhibition (IC50) of 28.4 nM.

`O=C(O)c1cn(-c2ccc(F)cc2)cc(O)c1=O` had an IC50 of 6510 nM.

In turn, `O=C(O)c1cn(CCc2ccc(Cl)cc2)cc(O)c1=O` showed an IC50 of 824 nM.

`O=c1ccn(Cc2ccc(F)cc2)cc1O` gave an IC50 of more than 500000 nM.

As to `O=C(O)c1cn(CC2(c3cccc(Oc4ccccc4)c3)CCCC2)cc(O)c1=O`, the 50% inhibitory concentration (IC50) stood at 43 nM.

The compound `O=C(O)c1cn(CCc2ccc(-c3ccc(F)cc3)cc2)cc(O)c1=O` registered an IC50 of 3730 nM. This IC50 is about 87-fold higher than that of the compound before.

Turning to `O=C(O)c1cn(CC2(c3ccccc3)CC2)cc(O)c1=O`, inhibition was half-maximal at 402 nM (IC50). This IC50 lies about 9.3-fold lower than the previous one.

The next assay can be described thus: Antiviral activity against Influenza A virus A/WSN/33(H1N1) infected in MDCK cells assessed as inhibition of virus-induced cytopathic effect after 3 days by WST-8 assay. The following applies: 72 h. The format is functional, cell-based, Influenza A virus (A/WSN/1933(H1N1)).
As for `O=C(O)c1cn(CC2(n3ccc4cccnc43)CCCC2)cc(O)c1=O`, the EC50 was determined as 201 nM.
